Results: patent publication US20260184675A1, “CHIRAL ISOMERIC SULFITE COMPOUND AND APPLICATION THEREOF” (Chengdu Hanova BioSciences Co., Ltd, priority 2024, published 2026)

Key:
Type in all cases: in vivo
[1] = system: pest eggs of Tetranychus cinnabarinus; experiment: Effect on hatching of pest eggs of Tetranychus cinnabarinus, leaf disc method; conditions: for Hatching rate (%): 7 days after insecticide delivery
Method: (§1) • (1) Preparation of leaf discs containing eggs: 20 female adult mites of Tetranychus cinnabarinus were transferred onto leaf discs of Vicia faba with a diameter of 2.0 cm (with wetted filter paper at the bottom), then covered it with a lidded culture dish and cultivated under moisturizing conditions, the adult mites were removed within 36 hours and microscopic examination and counting were performed on leaf discs containing eggs. • (2) Investigation of egg population base: Before pesticide soaking, a microscopic examination was conducted on the egg basic number of each leaf disc, with 2 replicates set for each treatment. • (3) Pesticide soaking treatment: The leaf butterflies loaded with mite eggs were soaked in clear water and sulfite compounds for 10 seconds, respectively, then taken out and cultivated under moisturizing conditions. Each treatment should be repeated for no less than 3 times. • (4) Cultivation and observation: The […] were cultivated under normal conditions. Five days after insecticide delivery, the hatching status of mite eggs was investigated. • Note: The temperature and humidity conditions of the constant temperature and humidity incubator after the treatment should be controlled so as to avoid excessive temperature differences, which may cause generation and dripping of condensate water in the culture dish, resulting in abnormal death of eggs due to soaking in water; it is also necessary to ensure sufficient strong ambient light, without directing irradiating the leaves. • (5) Survey of Results: The experimental materials of each treatment group were regularly hydrated and moisturized, and the hatching of eggs was observed. On the 7th day after insecticide delivery, the number of hatched eggs for each treatment was recorded, and the survey of results was recorded in the original notebook. According to the experimental requirements and characteristics of agents, the survey time can be shortened or extended. • 1) Surveying and recording the number of hatched eggs for each treatment. • 2) Photographing and recording whether there was any pesticide damage to the leaf discs of Vicia faba. • 3) Recording the developmental status of experimental mite eggs, behavior status of nymph mites, including abnormal phenomena such as delayed or stopped development of mite eggs, difficulty in breaking hull for nymph mites, or painful struggles after hatching, etc. • (6) Calculation method: Based on the survey data, the prevention and control effect of each treatment was calculated according to the following formula, and the calculation results were kept to two decimal places. [formula] [formula] [table]

[2] = system: eggs of Aleyrodidae; experiment: Effect on hatching of eggs of Aleyrodidae, leaf disc method; conditions: 10 ppm; for Hatching rate (%), Replicate 1 / Hatching rate (%), Replicate 2 / Hatching rate (%), Replicate 3 / Number of hatched larvae 5 days after insecticide delivery, Replicate 1 / Number of hatched larvae 5 days after insecticide delivery, Replicate 2 / Number of hatched larvae 5 days after insecticide delivery, Replicate 3: Aleyrodidae eggs; for Hatching rate (%), Replicate 1 / Hatching rate (%), Replicate 2 / Hatching rate (%), Replicate 3: 5 days after delivery; for Number of hatched larvae 5 days after insecticide delivery, Replicate 1 / Number of hatched larvae 5 days after insecticide delivery, Replicate 2 / Number of hatched larvae 5 days after insecticide delivery, Replicate 3: leaf disc
Method: as §1, with “extended.” for “extended. • 1) Surveying and recording the number of hatched eggs for each treatment. • 2) Photographing and recording whether there was any pesticide damage to the leaf discs of Vicia faba. • 3) Recording the developmental status of experimental mite eggs, behavior status of nymph mites, including abnormal phenomena such as delayed or stopped development of mite eggs, difficulty in breaking hull for nymph mites, or painful struggles after hatching, etc. • (6) Calculation method: Based on the survey data, the prevention and control effect of each treatment was calculated according to the following formula, and the calculation results were kept to two decimal places. [formula] [formula] [table]”
• 1) Surveying and recording the number of hatched eggs for each treatment. • 2) Photographing and recording whether there was any pesticide damage to the leaf discs of Vicia faba. • 3) Recording the developmental status of experimental mite eggs, behavior status of nymph mites, including abnormal phenomena such as delayed or stopped development of mite eggs, difficulty in breaking hull for nymph mites, or painful struggles after hatching, etc. • (6) Calculation method: Based on the survey data, the prevention and control effect of each treatment was calculated according to the following formula, and the calculation results were kept to two decimal places.
This test adopted the method in Test Example 1 of technical section, mainly used leaf disc method to explore the inhibitory effect on hatching of eggs of Aleyrodidae by compounds 1-(S,S), 1-(S,R), 1-(R,R), 1-(R,S), 1′-(S,S), 1′-(S,R), 1′-(R,R), 1′-(R,S), compound 1, compound 1′, S-10, R-10, S-10′, R-10′, compound 10, compound 10′, compound 19-(S,S), 19-(S,R), 19-(R,R), 19-(R,S), 19′-(S,S), 19′-(S,R), 19′-(R,R), 19′-(R,S), compound 19, and compound 19′. The concentration of all compounds was 10 ppm.

[3] = system: eggs of Harmonia axyridis; experiment: Effect on hatching of eggs of Harmonia axyridis, egg card immersion; conditions: 100 ppm; for Number of hatched larvae 4 days after insecticide delivery, Replicate 1 / Number of hatched larvae 4 days after insecticide delivery, Replicate 2 / Number of hatched larvae 4 days after insecticide delivery, Replicate 3: Harmonia axyridis egg cards, immersed 30 seconds; for Hatching rate (%), Replicate 1 / Hatching rate (%), Replicate 2 / Hatching rate (%), Replicate 3: Harmonia axyridis eggs, 4 days after delivery
Description: The eggs of Harmonia axyridis cards (with approximately 20 eggs per card) were purchased from Henan Jiyuan Baiyun Industry Co., Ltd. in Henan Province. The number of eggs on the egg cards was counted as the basic number before insecticide delivery, and 5 cards were used as one treatment, with 3 replicates per treatment. After immersing the egg cards in a 100 ppm insecticide solution for 30 seconds, they were taken out and air dried, then cultivated under moisturizing conditions, and the […] were cultivated at 27° C. 4 days after insecticide delivery, the hatching status of eggs of Harmonia axyridis was investigated, and the prevention and control effect was calculated according to the following formula. [formula] [formula]

## CC(COc1ccc(Cl)cc1Cl)OS(=O)OCCF [1′-(R,R)]
[1]; 0.25 mg/L, Replicate 1
  Hatching rate (%): 69.57%
  Number of hatched larvae 7 days after insecticide delivery: 14
[1]; 0.25 mg/L, Replicate 2
  Hatching rate (%): 82.22%
  Number of hatched larvae 7 days after insecticide delivery: 8
[1]; 0.5 mg/L, Replicate 1
  Hatching rate (%): 36.84%
  Number of hatched larvae 7 days after insecticide delivery: 36
[1]; 0.5 mg/L, Replicate 2
  Hatching rate (%): 36.51%
  Number of hatched larvae 7 days after insecticide delivery: 40
[1]; 1 mg/L, Replicate 1
  Hatching rate (%): 25.37%
  Number of hatched larvae 7 days after insecticide delivery: 50
[1]; 1 mg/L, Replicate 2
  Hatching rate (%): 8.00%
  Number of hatched larvae 7 days after insecticide delivery: 69
[2]; listed as 1′-(R, R)
  Hatching rate (%), Replicate 1: 13.95%
  Hatching rate (%), Replicate 2: 15.38%
  Hatching rate (%), Replicate 3: 13.21%
  Number of hatched larvae 5 days after insecticide delivery, Replicate 1: 18
  Number of hatched larvae 5 days after insecticide delivery, Replicate 2: 14
  Number of hatched larvae 5 days after insecticide delivery, Replicate 3: 14
[3]; listed as 1′-(R, R)
  Number of hatched larvae 4 days after insecticide delivery, Replicate 1: 15
  Number of hatched larvae 4 days after insecticide delivery, Replicate 2: 16
  Number of hatched larvae 4 days after insecticide delivery, Replicate 3: 18
  Hatching rate (%), Replicate 1: 17.05%
  Hatching rate (%), Replicate 2: 16.84%
  Hatching rate (%), Replicate 3: 16.22%

## CC(COc1ccc(Cl)cc1Cl)OS(=O)OCCF [1′-(R,S)]
[1]; 0.25 mg/L, Replicate 1
  Hatching rate (%): 54.17%
  Number of hatched larvae 7 days after insecticide delivery: 22
[1]; 0.25 mg/L, Replicate 2
  Hatching rate (%): 29.17%
  Number of hatched larvae 7 days after insecticide delivery: 68
[1]; 0.5 mg/L, Replicate 1
  Hatching rate (%): 1.25%
  Number of hatched larvae 7 days after insecticide delivery: 79
[1]; 0.5 mg/L, Replicate 2
  Hatching rate (%): 5.00%
  Number of hatched larvae 7 days after insecticide delivery: 76
[1]; 1 mg/L, Replicate 1
  Hatching rate (%): 0.00%
  Number of hatched larvae 7 days after insecticide delivery: 62
[1]; 1 mg/L, Replicate 2
  Hatching rate (%): 0.00%
  Number of hatched larvae 7 days after insecticide delivery: 42
[1]; 1 ppm
  inhibitory effect on the hatching of pest eggs of Tetranychus cinnabarinus (in words): excellent inhibitory effects
[2]
  inhibitory activity on the hatching of eggs of Aleyrodidae (in words): strong inhibitory activities
[2]; listed as 1′-(R, S)
  Hatching rate (%), Replicate 1: 0.00%
  Hatching rate (%), Replicate 2: 0.00%
  Hatching rate (%), Replicate 3: 0.00%
  Number of hatched larvae 5 days after insecticide delivery, Replicate 1: 0
  Number of hatched larvae 5 days after insecticide delivery, Replicate 2: 0
  Number of hatched larvae 5 days after insecticide delivery, Replicate 3: 0
[3]
  inhibitory activity on the hatching of eggs of Harmonia axyridis (in words): strong inhibitory activities
[3]; listed as 1′-(R, S)
  Number of hatched larvae 4 days after insecticide delivery, Replicate 1: 0
  Number of hatched larvae 4 days after insecticide delivery, Replicate 2: 0
  Number of hatched larvae 4 days after insecticide delivery, Replicate 3: 0
  Hatching rate (%), Replicate 1: 0.00%
  Hatching rate (%), Replicate 2: 0.00%
  Hatching rate (%), Replicate 3: 0.00%
